Some results are limits rather than exact numbers.

This assay has as its system RKO p21 uninduced (proliferating) colon adenocarcinoma cells. As to the kind of experiment: Alamar Blue cell viability assay, RKO p21 uninduced (proliferating). Format: cell-based. The settings on record: Homo sapiens, Table B3, anti-proliferative/cytotoxic activity, 72 hours, read-out: −log EC50 RKO p21 uninduced (proliferating) (converted). The gist of the method:
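RKO p21 or p27 subclones grown without Ponasterone A, i.e. proliferating, exposed 24 h after seeding to semi-log compound dilutions in DMEM/10% FCS (1% DMSO controls) for 72 h at 37° C. Alamar Blue fluorescence (544/590 nm) read relative to untreated cells; EC50 from dose-response curves, given as −log EC50 (mol/l).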
Background: Alamar Blue is a resazurin reagent that responds to reducing activity.
For the molecule `CCOc1ccc2[nH]c3c(c2c1)C[C@@]1(C)C(=O)N(CCCN(C)CCO)C(=O)N1[C@@H]3c1cccc(O)c1` (racemic) [Example 193, (3aSR,10RS)-6-Ethoxy-2-{3-[(2-hydrox-ethyl)-methyl-amino]-propyl}-10-(3-hydroxy-phenyl)-3a-methyl-3a,4,9,10-tetrahydro-2,9,10a-triaza-cyclopenta[b]fluorene-1,3-dione], the EC50 (in general, the concentration needed to bring the measured effect to its halfway point) is 39.8 to 251 nM.

As for `COc1cc2c3c([nH]c2cc1F)[C@@H](c1cccc(O)c1)N1C(=O)N(CCCN(C)CCO)C(=O)[C@]1(C)C3` (racemic) [Example 312, (3aSR,10RS)-7-Fluoro-2-{3-[(2-hydroxy-ethyl)-methyl-amino]-propyl}-10-(3-hydroyx-phenyl)-6-methoxy-3a-methyl-3a,4,9,10-tetrahydro-2,9,10a-triaza-cyclopenta[b]fluorene-1,3-dione], the EC50 was 39.8 to 251 nM.

As to `COc1cc2c3c([nH]c2cc1F)[C@@H](c1cccc(O)c1)N1C(=O)N(CCCNC2CCC2)C(=O)[C@]1(C)C3` (racemic) [Example 333, (3aSR,10RS)-2-(3-Cyclobutylamino-propyl)-7-fluoro-10-(3-hydroxy-phenyl)-6-methoxy-3a-methyl-3a,4,9,10-tetrahydro-2,9,10a-triaza-cyclopenta[b]fluorene-1,3-dione], the EC50 is 39.8 to 251 nM.

Take `CCOc1ccc2[nH]c3c(c2c1)C[C@@]1(C)C(=O)N(CCN(CC)CCOC)C(=O)N1[C@@H]3c1cccc(O)c1` (racemic) [Example 299, (3aSR,10RS)-6-Ethoxy-2-{2-[ethyl-(2-methoxy-ethyl)-amino]-ethyl}-10-(3-hydroxy-phenyl)-3a-methyl-3a,4,9,10-tetrahydro-2,9,10a-triaza-cyclopenta[b]fluorene-1,3-dione]: the EC50 was 39.8 to 251 nM.

Regarding `CCOc1ccc2[nH]c3c(c2c1)C[C@@]1(C)C(=O)N(CCCNC)C(=O)N1[C@@H]3c1cccc(O)c1` (racemic) [Example 186, (3aSR,10RS)-6-Ethoxy-10-(3-hydroxy-phenyl)-3a-methyl-2-(3-methylamino-propyl)-3a,4,9,10-tetrahydro-2,9,10a-triaza-cyclopenta[b]fluorene-1,3-dione], the concentration giving a half-maximal response (EC50) is 39.8 to 251 nM.

For the molecule `CCN(CCOC)CCN1C(=O)N2[C@H](c3cccc(O)c3)c3[nH]c4ccc(Br)cc4c3C[C@@]2(C)C1=O` (racemic) [Example 380, (3aSR,10RS)-6-Bromo-2-{2-[ethyl-(2-methoxy-ethyl)-amino]-ethyl}-10-(3-hydroxy-phenyl)-3a-methyl-3a,4,9,10-tetrahydro-2,9,10a-triaza-cyclopenta[b]fluorene-1,3-dione], the EC50 was 39.8 to 251 nM.

As to `COc1ccc2[nH]c3c(c2c1F)C[C@@]1(C)C(=O)N(CCNC2CCC2)C(=O)N1[C@@H]3c1cccc(O)c1` (racemic) [Example 413, (3aSR,10RS)-2-(2-Cyclobutylamino-ethyl)-5-fluoro-10-(3-hydroxy-phenyl)-6-methoxy-3a-methyl-3a,4,9,10-tetrahydro-2,9,10a-triaza-cyclopenta[b]fluorene-1,3-dione], the EC50 was 39.8 to 251 nM.

On to `CCOc1ccc2[nH]c3c(c2c1)C[C@@]1(C)C(=O)N(CCCN2CCC2)C(=O)N1[C@@H]3c1cccc(O)c1` (racemic) [Example 198, (3aSR,10RS)-2-(3-Azetidin-1-yl-propyl)-6-ethoxy-10-(3-hydroxy-phenyl)-3a-methyl-3a,4,9,10-tetrahydro-2,9,10a-triaza-cyclopenta[b]fluorene-1,3-dione], for which the EC50 was 39.8 to 251 nM.

Regarding `CCOc1ccc2[nH]c3c(c2c1)C[C@@]1(C)C(=O)N(CCN2CCCCCC2)C(=O)N1[C@@H]3c1cccc(O)c1` (racemic) [Example 166, (3aSR,10RS)-2-(2-Azepan-1-yl-ethyl)-6-ethoxy-10-(3-hydroxy-phenyl)-3a-methyl-3a,4,9,10-tetrahydro-2,9,10a-triaza-cyclopenta[b]fluorene-1,3-dione], the EC50 is 39.8 to 251 nM.

For `CN(CCO)CCCN1C(=O)N2[C@H](c3cccc(O)c3)c3[nH]c4cc(F)c(Cl)cc4c3C[C@@]2(C)C1=O` (racemic) [Example 468, (3aSR,10RS)-6-Chloro-7-fluoro-2-{3-[(2-hydroxy-ethyl)-methyl-amino]-propyl}-10-(3-hydroxy-phenyl)-3a-methyl-3a,4,9,10-tetrahydro-2,9,10a-triaza-cyclopenta[b]fluorene-1,3-dione], the EC50 was not above 39.8 nM.

On to `C[C@@]12Cc3c([nH]c4cc(F)c(Cl)cc34)[C@@H](c3cccc(O)c3)N1C(=O)N(CCCN1CC=CCC1)C2=O` (racemic) [Example 480, (3aSR,10RS)-6-Chloro-2-[3-(3,6-dihydro-2H-pyridin-1-yl)-propyl]-7-fluoro-10-(3-hydroxy-phenyl)-3a-methyl-3a,4,9,10-tetrahydro-2,9,10a-triaza-cyclopenta[b]fluorene-1,3-dione], for which the EC50 is 39.8 to 251 nM.

`C=CCN(C)CCN1C(=O)N2[C@H](c3cccc(O)c3)c3[nH]c4ccc(OC(F)F)cc4c3C[C@@]2(C)C1=O` (racemic) [Example 290, (3aSR,10RS)-2-[2-(Allyl-methyl-amino)-ethyl]-6-(1,1-difluoro-methoxy)-10-(3-hydroxy-phenyl)-3a-methyl-3a,4,9,10-tetrahydro-2,9,10a-triaza-cyclopenta[b]fluorene-1,3-dione]: the 50% effective concentration (EC50) was 39.8 to 251 nM.

In the case of `C=CCN(C)CCCN1C(=O)N2[C@H](c3cccc(O)c3)c3[nH]c4cc(F)c(Cl)cc4c3C[C@@]2(C)C1=O` (racemic) [Example 472, (3aSR,10RS)-2-[3-(Allyl-methyl-amino)-propyl]-6-chloro-7-fluoro-10-(3-hydroyx-phenyl)-3a-methyl-3a,4,9,10-tetrahydro-2,9,10a-triaza-cyclopenta[b]fluorene-1,3-dione], the EC50 is 39.8 to 251 nM.

Take `C[C@@]12Cc3c([nH]c4cc(F)c(Cl)cc34)[C@@H](c3cccc(O)c3)N1C(=O)N(CCNC1CCC1)C2=O` (racemic) [Example 344, (3aSR,10RS)-6-Chloro-2-(2-cyclobutylamino-ethyl)-7-fluoro-10-(3-hydroxy-phenyl)-3a-methyl-3a,4,9,10-tetrahydro-2,9,10a-triaza-cyclopenta[b]fluorene-1,3-dione]: the EC50 was not above 39.8 nM.

In the case of `CCOc1ccc2[nH]c3c(c2c1)C[C@@]1(C)C(=O)N(CCN(C)CCO)C(=O)N1[C@@H]3c1cccc(O)c1` (racemic) [Example 297, (3aSR,10RS)-6-Ethoxy-2-{2-[(2-hydroxy-ethyl)-methyl-amino]-ethyl}-10-(3-hydroxy-phenyl)-3a-methyl-3a,4,9,10-tetrahydro-2,9,10a-triaza-cyclopenta[b]fluorene-1,3-dione], the EC50 was 39.8 to 251 nM.

Consider `CC(C)CNCCN1C(=O)N2[C@H](c3cccc(O)c3)c3[nH]c4ccc(Br)cc4c3C[C@@]2(C)C1=O` (racemic) [Example 391, (3aSR,10RS)-6-Bromo-10-(3-hydroxy-phenyl)-2-(2-isobutylamino-ethyl)-3a-methyl-3a,4,9,10-tetrahydro-2,9,10a-triaza-cyclopenta[b]fluorene-1,3-dione], for which the EC50 is not above 39.8 nM.

As for `CN(C)CCCN1C(=O)N2[C@H](c3cccc(O)c3)c3[nH]c4ccc(OC(F)F)cc4c3C[C@@]2(C)C1=O` (racemic) [Example 314, (3aSR,10RS)-6-(1,1-Difluoro-methoxy)-2-(3-dimethylamino-propyl)-10-(3-hydroxy-phenyl)-3a-methyl-3a,4,9,10-tetrahydro-2,9,10a-triaza-cyclopenta[b]fluorene-1,3-dione], the EC50 was not above 39.8 nM.

Turning to `CCNCCN1C(=O)N2[C@H](c3cccc(O)c3)c3[nH]c4ccc(OC(F)F)cc4c3C[C@@]2(C)C1=O` (racemic) [Example 284, (3aSR,10RS)-6-(1,1-Difluoro-methoxy)-2-(2-ethylamino-ethyl)-10-(3-hydroxy-phenyl)-3a-methyl-3a,4,9,10-tetrahydro-2,9,10a-triaza-cyclopenta[b]fluorene-1,3-dione], the EC50 is not above 39.8 nM.

Turning to `CCNCCN1C(=O)N2[C@H](c3cccc(O)c3)c3[nH]c4ccc(OC)c(F)c4c3C[C@@]2(C)C1=O` (racemic) [Example 407, (3aSR,10RS)-2-(2-Ethylamino-ethyl)-5-fluoro-10-(3-hydroxy-phenyl)-6-methoxy-3a-methyl-3a,4,9,10-tetrahydro-2,9,10a-triaza-cyclopenta[b]fluorene-1,3-dione], the EC50 was 39.8 to 251 nM.

`COc1cc2c3c([nH]c2cc1F)[C@@H](c1cccc(O)c1)N1C(=O)N(CCCN2CC=CC2)C(=O)[C@]1(C)C3` (racemic) [Example 323, (3aSR,10RS)-2-[3-(2,5-Dihydro-pyrrol-1-yl)-propyl]-7-fluoro-10-(3-hydroxy-phenyl)-6-methoxy-3a-methyl-3a,4,9,10-tetrahydro-2,9,10a-triaza-cyclopenta[b]fluorene-1,3-dione]: the EC50 was 39.8 to 251 nM.

As for `C=CCNCCN1C(=O)N2[C@H](c3cccc(O)c3)c3[nH]c4ccc(Br)cc4c3C[C@@]2(C)C1=O` (racemic) [Example 383, (3aSR,10RS)-2-(2-Allylamino-ethyl)-6-bromo-10-(3-hydroxy-phenyl)-3a-methyl-3a,4,9,10-tetrahydro-2,9,10a-triaza-cyclopenta[b]fluorene-1,3-dione], the EC50 was not above 39.8 nM.

For the molecule `CNCCCN1C(=O)N2[C@H](c3cccc(O)c3)c3[nH]c4cc(F)c(Cl)cc4c3C[C@@]2(C)C1=O` (racemic) [Example 456, (3aSR,10RS)-6-Chloro-7-fluoro-10-(3-hydroxy-phenyl)-3a-methyl-2-(3-methylamino-propyl)-3a,4,9,10-tetrahydro-2,9,10a-triaza-cyclopenta[b]fluorene-1,3-dione], the EC50 was 39.8 to 251 nM.

As to `CCNCCCN1C(=O)N2[C@H](c3cccc(O)c3)c3[nH]c4ccc(Br)cc4c3C[C@@]2(C)C1=O` (racemic) [Example 212, (3aSR,10RS)-6-Bromo-2-(3-ethylamino-propyl)-10-(3-hydroxy-phenyl)-3a-methyl-3a,4,9,10-tetrahydro-2,9,10a-triaza-cyclopenta[b]fluorene-1,3-dione], the EC50 is not above 39.8 nM.

The values above are taken from patent US8530493B2, “Indolopyridines as Eg5 kinesin modulators” (4SC AG, priority 2006, dated 2013).
